Results on 33 compounds are retold here after US10961238B2, “Modulators of hedgehog (Hh) signaling pathway” (E-THERAPEUTICS PLC, priority 2016, dated 2021).

For this assay, the system named is C3H10T1/2 cells. The assay can be described thus: C3H assay: differentiation of C3H10T1/2 cells by mSHH, measurement of alkaline phosphatase. Conditions: Mus musculus, read-out: IC50 Ranges. It counts as cell-based, mouse.
[1] abbreviates: C3H 10T1/2, C3H10T1/2 cells stimulated with mSHH for 72 hours, alkaline phosphatase activity.

Where two headings read alike, the source gives them in different places. Some results are limits rather than exact numbers.

Consider `COc1ccccc1OC(=O)N1CC(S(=O)(=O)N2CCC(c3ccncc3)CC2)C1` [Compound 27, (2-methoxyphenyl) 3-(4-pyridin-4-ylpiperidin-1-yl)sulfonylaze-tidine-1-carboxylate], for which, under setting [1], the IC50 – broadly, the concentration at which inhibition is half-maximal – lay in the range of 10 to 100 nM.
As for `COC1CCC(OC(=O)N2CC(S(=O)(=O)N3CCC(c4ccncc4)CC3)C2)CC1` (stereo not drawn) [Compound 28, (4-methoxycyclo-hexyl) 3-(4-pyridin-4-9-ylpiperidin-1-yl)sulfonylaze-tidine-1-carboxylate], under setting [1], the IC50 lay in the range of 100 to 1000 nM.
As to `O=C(OC1CCOCC1)N1CC(S(=O)(=O)N2CCC(c3ccncc3)CC2)C1` [Compound 29, oxan-4-yl 3-(4-pyridin-4-ylpiperidin-1-yl)sulfonylaze-tidine-1-carboxylate], the IC50 under setting [1] fell in the range of 1000 to 10000 nM.
For `O=C(OCC1CCCO1)N1CC(S(=O)(=O)N2CCC(c3ccncc3)CC2)C1` (stereo not drawn) [Compound 30, (oxolan-2-yl)methyl 3-(4-pyridin-4-ylpiperidin-1-yl)sulfonylaze-tidine-1-carboxylate], the IC50 under setting [1] fell in the range of 1000 to 10000 nM.
For `CN(C(=O)N1CC(S(=O)(=O)N2CCC(c3ccncc3)CC2)C1)C(C)(C)C` [Compound 31, N-tert-butyl-N-methyl-3-(4-pyridin-4-ylpiperidin-1-yl)sulfonylaze-tidine-1-carboxamide], the IC50 under setting [1] lay within 100 to 1000 nM.
`CC1(C)COCC(C)(C)N1C(=O)N1CC(S(=O)(=O)N2CCC(c3ccncc3)CC2)C1` [Compound 32, [3-(4-pyridin-4-ylpiperidin-1-yl)sulfonylaze-tidin-1-yl]-(3,3,5,5-tetramethylmor-pholin-4-yl)methanone]: the IC50 under setting [1] lay within 100 to 1000 nM.
Still for that read-out and setting: to `CC(C)(C)CC(C)(C)NC(=O)N1CC(S(=O)(=O)N2CCC(c3ccncc3)CC2)C1` [Compound 33, 3-(4-pyridin-4-ylpiperidin-1-yl)sulfonyl-N-(2,4,4-trimethylpentan-2-yl)azetidine-1-carboxamide] belongs 10 to 100 nM.
Regarding `C[C@@H]1CN(C(=O)N2CC(S(=O)(=O)N3CCC(c4cnc5occc5c4)CC3)C2)C[C@H](C)O1` [Compound 35, [(2R,6S)-2,6-dimethylmorpholin-4-yl]-[3-(4-furo[2,3-b]pyridin-5-ylpiperidin-1-yl)sulfonylaze-tidin-1-yl]methanone], under setting [1], the IC50 lay in the range of 100 to 1000 nM.
Regarding `Cc1noc(C)c1NC(=O)N1CC(S(=O)(=O)N2CCC(c3cnc4c(c3)CCO4)CC2)C1` [Compound 36, 3-[4-(2,3-dihydrofuro[2,3-b]pyridin-5-yl)piperidin-1-yl]sulfonyl-N-(3,5-dimethyl-1,2-oxazol-4-yl)azetidine-1-carboxamide], under setting [1], the IC50 lay in the range of 1000 to 10000 nM.
As for `Cc1noc(C)c1NC(=O)N1CC(S(=O)(=O)N2CCC(c3cnc4occc4c3)CC2)C1` [Compound 37, N-(3,5-dimethyl-1,2-oxazol-4-yl)-3-(4-furo[2,3-b]pyridin-5-ylpiperidin-1-yl)sulfonylaze-tidine-1-carboxamide], the IC50 under setting [1] was 1000 to 10000 nM.
Still for that read-out and setting: to `O=C(OC1CCCCC1)N1CC(S(=O)(=O)N2CCC(c3cnc4occc4c3)CC2)C1` [Compound 38, cyclohexyl 3-(4-furo[2,3-b]pyridin-5-ylpiperidin-1-yl)sulfonylaze-tidine-1-carboxylate] belongs 100 to 1000 nM; to `Cc1noc(C)c1NC(=O)N1CC(S(=O)(=O)N2CCC(c3c[nH]c4cccnc34)CC2)C1` [Compound 39, N-(3,5-dimethyl-1,2-oxazol-4-yl)-3-[4-(1H-pyrrolo[3,2-b]pyridin-3-yl)piperidin-1-yl]sulfonylaze-tidine-1-carboxamide], 10 to 100 nM; to `O=C(OC1CCCCC1)N1CC(S(=O)(=O)N2CCC(c3cn(C(=O)OC4CCCCC4)c4cccnc34)CC2)C1` [Compound 40, cyclohexyl 3-[1-(1-cyclohexyloxycarbonylazetidin-3-yl)sulfonylpiper-idin-4-yl]pyrrolo [3,2-b]pyridine-1-carboxylate], 1000 to 10000 nM.
In the case of `O=C(OC1CCCCC1)N1CC(S(=O)(=O)N2CCC(c3c[nH]c4cccnc34)CC2)C1` [Compound 41, cyclohexyl 3-[4-(1H-pyrrolo[3,2-b]pyridin-3-yl)piperidin-1-yl]sulfonylaze-tidine-1-carboxylate], under setting [1], the IC50 is 10 to 100 nM.
As to `Cc1noc(C)c1NC(=O)N1CC(S(=O)(=O)N2CCC(c3cn(C)c4nccnc34)CC2)C1` [Compound 42, N-(3,5-dimethyl-1,2-oxazol-4-yl)-3-[4-(5-methylpyrrolo [2,3-b]pyrazin-7-yl)piperidin-1-yl]sulfonylaze-tidine-1-carboxamide], the IC50 under setting [1] was in the range of 1000 to 10000 nM.
`Cc1noc(C)c1NC(=O)N1CC(S(=O)(=O)N2CCC(c3c[nH]c4nccnc34)CC2)C1` [Compound 43, N-(3,5-dimethyl-1,2-oxazol-4-yl)-3-[4-(5H-pyrrolo [2,3-b]pyrazin-7-yl)piperidin-1-yl]sulfonylaze-tidine-1-carboxamide]: the IC50 under setting [1] was in the range of 10 to 100 nM.
In the case of `O=C(OC1CCCCC1)N1CC(S(=O)(=O)N2CCC(c3c[nH]c4nccnc34)CC2)C1` [Compound 44, cyclohexyl 3-[4-(5H-pyrrolo[2,3-b]pyrazin-7-yl)piperidin-1-yl]sulfonylaze-tidine-1-carboxylate], under setting [1], the IC50 is 10 to 100 nM.
Same read-out and setting: to `CC1CC(c2c[nH]c3ncccc23)CCN1S(=O)(=O)C1CN(C(=O)OC(C)(C)C)C1` (stereo not drawn) [Compound 46, tert-butyl 3-[2-methyl-4-(1H-pyrrolo [2,3-b]pyridin-3-yl)piperidin-1-yl]sulfonylaze-tidine-1-carboxylate] belongs 1000 to 10000 nM.
For the compound `COc1ccc(C2CCN(S(=O)(=O)C3CN(C(=O)OC(C)(C)C)C3)CC2)nc1` [Compound 47, tert-butyl 3-[4-(5-methoxypyridin-2-yl)piperidin-1-yl]sulfonylaze-tidine-1-carboxylate], the IC50 under setting [1] was 1000 to 10000 nM.
Turning to `COc1ccc(C2CCN(S(=O)(=O)C3CN(C(=O)OC(C)(C)C)C3)CC2)cn1` [Compound 48, tert-butyl 3-[4-(6-methoxypyridin-3-yl)piperidin-1-yl]sulfonylaze-tidine-1-carboxylate], the IC50 under setting [1] was in the range of 100 to 1000 nM.
As to `CC(C)(C)OC(=O)N1CC(S(=O)(=O)N2CCC(c3c[nH]c4cccnc34)CC2)C1` [Compound 49, tert-butyl 3-[4-(1H-pyrrolo[3,2-b]pyridin-3-yl)piperidin-1-yl]sulfonylaze-tidine-1-carboxylate], the concentration for half-maximal inhibition (IC50) under setting [1] was 10 to 100 nM.
Still for that read-out and setting: next, `CN(C)CC(C)(C)OC(=O)N1CC(S(=O)(=O)N2CCC(c3c[nH]c4ncccc34)CC2)C1` [Compound 50, [1-(dimethylamino)-2-methylpropan-2-yl] 3-[4-(1H-pyrrolo[2,3-b]pyridin-3-yl)piperidin-1-yl]sulfonylaze-tidine-1-carboxylate]: 10 to 100 nM.
The same measure, in the same setting: to `CN1CCC(COC(=O)N2CC(S(=O)(=O)N3CCC(c4c[nH]c5ncccc45)CC3)C2)CC1` [Compound 51, (1-methylpiperidin-4-yl)methyl 3-[4-(1H-pyrrolo [2,3-b]pyridin-3-yl)piperidin-1-yl]sulfonylaze-tidine-1-carboxylate] belongs 100 to 1000 nM.
The same measure, in the same setting: next, `CCN(CC)CCOC(=O)N1CC(S(=O)(=O)N2CCC(c3c[nH]c4ncccc34)CC2)C1` [Compound 52, 2-(diethylamino) ethyl 3-[4-(1H-pyrrolo [2,3-b]pyridin-3-yl)piperidin-1-yl]sulfonylaze-tidine-1-carboxylate]: 100 to 1000 nM.
With `CN1CCN(CCCOC(=O)N2CC(S(=O)(=O)N3CCC(c4c[nH]c5ncccc45)CC3)C2)CC1` [Compound 53, 3-(4-methylpiperazin-1-yl)propyl 3-[4-(1H-pyrrolo [2,3-b]pyridin-3-yl)piperidin-1-yl]sulfonylaze-tidine-1-carboxylate], the IC50 under setting [1] was 1000 to 10000 nM.
Take `O=C(OCCN1CCOCC1)N1CC(S(=O)(=O)N2CCC(c3c[nH]c4ncccc34)CC2)C1` [Compound 54, 2-morpholin-4-ylethyl 3-[4-(1H-pyrrolo [2,3-b]pyridin-3-yl)piperidin-1-yl]sulfonylaze-tidine-1-carboxylate]: the IC50 under setting [1] lay in the range of 10 to 100 nM.
Still for that read-out and setting: to `Cc1noc(C)c1CNC(=O)N1CC(S(=O)(=O)N2CCC(c3c[nH]c4ncccc34)CC2)C1` [Compound 55, N-[(3,5-dimethyl-1,2-oxazol-4-yl)methyl]-3-[4-(1H-pyrrolo[2,3-b]pyridin-3-yl)piperidin-1-yl]sulfonylaze-tidine-1-carboxamide] belongs 10 to 100 nM; to `Cc1noc(C)c1CCN1CC(S(=O)(=O)N2CCC(c3c[nH]c4ncccc34)CC2)C1` [Compound 56, 3,5-Dimethyl-4-[2-[3-[[4-(1H-pyrrolo[2,3-b]pyridin-3-yl)-1-piperidyl]sulfonyl]azetidin-1-yl]ethyl]isoxazole], 10 to 100 nM.
Still for that read-out and setting: to `O=C(NC1(C(F)(F)F)CC1)N1CC(S(=O)(=O)N2CCC(c3c[nH]c4ncccc34)CC2)C1` [Compound 57, 3-[[4-(1H-Pyrrolo[2,3-b]pyridin-3-yl)-1-piperidyl]sulfonyl]-N-[1-(trifluoromethyl)cyclopropyl]azetidine-1-carboxamide] belongs under 10 nM; to `O=C(OCCCN1CCCCC1)N1CC(S(=O)(=O)N2CCC(c3c[nH]c4ncccc34)CC2)C1` [Compound 58, 3-piperidin-1-ylpropyl 3-[4-(1H-pyrrolo[2,3-b]pyridin-3-yl)piperidin-1-yl]sulfonylaze-tidine-1-carboxylate], 100 to 1000 nM; to `O=C(OCCN1CCCCC1)N1CC(S(=O)(=O)N2CCC(c3c[nH]c4ncccc34)CC2)C1` [Compound 59, 2-piperidin-1-ylethyl 3-[4-(1H-pyrrolo [2,3-b]pyridin-3-yl)piperidin-1-yl]sulfonylaze-tidine-1-carboxylate], 10 to 100 nM.
`O=C(OCCC1CCOCC1)N1CC(S(=O)(=O)N2CCC(c3c[nH]c4ncccc34)CC2)C1` [Compound 60, 2-Tetrahydropyran-4-ylethyl 3-[[4-(1H-pyrrolo[2,3-b]pyridin-3-yl)-1-piperidyl]sulfonyl]azetidine-1-carboxylate]: where the note is “C3H 10T1/2, 72 h”, the IC50 lay in the range of 10 to 100 nM.
Take `Cc1noc(C)c1CN1CC(S(=O)(=O)N2CCC(c3c[nH]c4ncccc34)CC2)C1` [Compound 61, 3,5-dimethyl-4-[[3-[4-(1H-pyrrolo [2,3-b]pyridin-3-yl)piperidin-1-yl]sulfonylaze-tidin-1-yl]methyl]-1,2-oxazole]: the IC50 under setting [1] lay in the range of 1000 to 10000 nM.
